Results on 17 molecules are retold here after article PMC11110763, “Carltonine-derived compounds for targeted butyrylcholinesterase inhibition” (RSC Medicinal Chemistry, 2024).

In general, IC50 refers to the concentration that gives 50% inhibition. Usually inhibition stands for how much of the control response was suppressed.

Some results are limits rather than exact numbers.

Series [1] has as its target T1, recombinant BChE (hBChE, E.C. 3.1.1.8) (Homo sapiens, UniProt P06276).
T1 construct: purchased Sigma-Aldrich, Prague, Czech Republic
Briefly: biochemical. The series is classed as biochemical. The note with it: for IC50: mean ± SEM of three independent measurements, each in triplicate; for inhibition at 10 µM: tested at 10 μM compound concentration, read-out: % inhibition of hBChE ± SEM.
Method: The activities of hAChE and hBChE were determined using a modified Ellman's method, as described in ref. [56] and [62] against recombinant AChE (hAChE, E.C. 3.1.1.7) and recombinant BChE (hBChE, E.C. 3.1.1.8), both of which were purchased from Sigma-Aldrich, Prague, Czech Republic. […] The other compounds used, including the phosphate buffer solution (PBS, pH = 7.4), 5,5′-dithio-bis(2-nitrobenzoic) acid (Ellman's reagent, DTNB), acetylthiocholine (ATChI), and butyrylthiocholine (BTChI), were commercially available and purchased from Sigma-Aldrich in Prague, Czech Republic. In brief, the corresponding enzyme (8.3 μL), 5 mM DTNB (283 μL), and the sample dilution in dimethyl sulfoxide (DMSO) at various concentrations (8.3 μL) were added to 96-well microplates (BRAND GMBH + CO KG, Wertheim, Germany) and pre-incubated for 5 minutes in the assay medium. The reaction was initiated by adding 10 mM substrate (ATChI or BTChI, 33.3 μL). […] Each measurement was repeated in triplicate. The percentage of inhibition was calculated using the following formula: [drawing 8] where ΔABl represents the increase in absorbance of the blank sample, and ΔASa represents the increase in absorbance of the measured sample. […] Microsoft Excel (Redmond, WA, USA) and GraphPad Prism version 7 for Windows (GraphPad Software, San Diego, CA, USA) were used for the statistical data evaluation.

Series [2] in a line: PAMPA assay (BBB penetration). Particulars: for Pe ± SEM: PAMPA, PBS pH 7.4, n = 3; for BBB penetration estimation CNS (+/−): class from PAMPA Pe.
From the text: Furthermore, we experimentally determined the ability of 12 highlighted hBChE inhibitors to pass through the BBB using a parallel artificial membrane permeation assay (PAMPA) as described by Di et al.[65] […] The methodology was validated on a set of compounds (positive and negative controls) recognized for their activity in the CNS (Table 3).
In this study, it has been used as a non-cell-based in vitro assay carried out in a coated 96-well membrane filter. The filter membrane of the donor plate was coated with PBL (polar brain lipid, Avanti, USA) in dodecane (4 μl of 20 mg ml^−1 PBL in dodecane) and the acceptor well was filled with 300 μl of PBS (pH 7.4; VA). The tested compounds were dissolved first in DMSO and subsequently diluted with PBS (pH 7.4) to final concentrations of 50–100 μM in the donor wells. […] About 300 μL of the donor solution was added to the donor wells (VD) and the donor filter plate was carefully put on the acceptor plate so that the coated membrane was “in touch” with both the donor solution and acceptor buffer. In principle, the test compound diffused from the donor well through the lipid membrane (area = 0.28 cm^2) to the acceptor well. The concentration of the drug in both the donor and acceptor wells was assessed after 3, 4, 5, and 6 h of incubation in quadruplicate using the UV plate reader Spark (Tecan Group Ltd, Switzerland) at the maximum absorption wavelength of each compound. Besides that, a solution of theoretical compound concentration, simulating the equilibrium state established if the membrane were ideally permeable, was prepared and assessed as well. The concentration of the compounds in the donor and acceptor wells and equilibrium concentration were calculated from the standard curve and expressed as the permeability (Pe) according the equation: [drawing 10] where [drawing 11]
The nature of series [3]: Cytotoxicity MTT assay, human neuroblastoma cell line. The note with it: SH-SY5Y neuroblastoma cells.
The test system of another series is HepG2 cells. The note with it: human, 24 h.
A short description of a further series: in vitro. The note with it: human, HepG2 hepatocellular carcinoma cells.
Series [4] concerns recombinant AChE (hAChE, E.C. 3.1.1.7). The arrangement: method as in PMID 32455879, PMID 36152726. Particulars: template alkaloid, Fig. 1; cited from earlier work.

T1 sequence (P06276 29-602): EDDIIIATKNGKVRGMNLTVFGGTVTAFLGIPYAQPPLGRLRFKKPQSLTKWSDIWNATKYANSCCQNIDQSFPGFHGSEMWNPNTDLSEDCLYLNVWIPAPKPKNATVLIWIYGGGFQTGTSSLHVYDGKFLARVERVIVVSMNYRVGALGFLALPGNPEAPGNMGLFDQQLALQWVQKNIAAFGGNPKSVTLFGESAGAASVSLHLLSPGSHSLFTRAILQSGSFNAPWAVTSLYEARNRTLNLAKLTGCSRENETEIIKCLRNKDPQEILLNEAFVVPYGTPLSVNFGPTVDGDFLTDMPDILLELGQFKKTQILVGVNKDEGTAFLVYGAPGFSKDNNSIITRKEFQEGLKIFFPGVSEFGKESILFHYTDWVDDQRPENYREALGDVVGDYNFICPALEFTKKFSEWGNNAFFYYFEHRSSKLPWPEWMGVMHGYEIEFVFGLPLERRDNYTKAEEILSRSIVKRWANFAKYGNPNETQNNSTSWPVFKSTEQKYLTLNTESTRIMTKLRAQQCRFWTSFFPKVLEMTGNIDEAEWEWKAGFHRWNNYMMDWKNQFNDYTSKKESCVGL
Method for HepG2 cells: (§1) For passaging, the cells were treated with trypsin/EDTA (Sigma-Aldrich, St. Louis, USA) at 37 °C and then harvested. For cytotoxicity evaluation, the cells treated with the studied substances were used, while untreated HepG2 cells served as the control group. The cells were seeded in a 96-well plate at a density of 5 × 10^4 cells per well and incubated for 24 hours. All tested compounds were dissolved in DMSO to prepare 10 mM stock solutions and subsequently diluted to the desired concentration just before the cell treatment (the highest DMSO concentration used was 0.5% v/v). Positive and negative controls were included, as well, and the activity of all the samples was determined in triplicate. Plates were incubated for 24 h in a humidified atmosphere containing 5% CO2 at 37 °C. […] Afterwards, the formazan crystals were dissolved in DMSO, and the absorbance of samples was recorded at 570 nm (BioTek, Synergy Neo2 Multi-Mode Reader NEO2SMALPHAB; BioTek, Winooski, VT, USA). IC50 values were calculated by nonlinear regression from a semi-logarithmic plot of incubation concentration versus percentage of absorbance relative to untreated controls using GraphPad Prism software (version 9; GraphPad Software, Inc., La Jolla, CA, USA).
Method for in vitro: as §1

`CC(CCc1ccccc1)NCc1ccc(OCc2ccccc2)cc1` (stereo not shown) [Compound 42, {[4-(Benzyloxy)phenyl]methyl}(4-phenylbutan-2-yl)amine]: in series [1], the half-inhibitory concentration (IC50) was 0.5 ± 0.1 µM and the inhibition at 10 µM is 92 ± 0.5%. In series [2], the “Pe ± SEM” value is 22.0 ± 4.2 ×10^−6 cm s^−1 and the “BBB penetration estimation CNS (+/−)” value is “CNS + (CNS (+) (high BBB permeation predicted): Pe (×10^−6 cm s^−1) > 4.0)”.
Turning to `C=CCOc1ccc(CCN(CC=C)Cc2ccc(OC)c(OCc3ccccc3)c2)cc1` [Compound 1, reference compound], in series [3], the IC50 at 24 h was above 125 µM.
Turning to `CC(CNCc1cccc(OCc2ccccc2)c1)c1ccccc1` (stereo not shown) [Compound 18, {[3-(Benzyloxy)phenyl]methyl}(2-phenylpropyl)amine], the Safety index with HepG2 cells was found to be 290. Besides, in series [1], the IC50 turned out to be 0.188 ± 0.023 µM and the inhibition at 10 µM was found to be 96 ± 0.3%. In series [3], this molecule yielded an IC50 at 24 h of 36 ± 1.4 µM. In series [2], the “Pe ± SEM” value is 8.1 ± 0.6 ×10^−6 cm s^−1 and the “BBB penetration estimation CNS (+/−)” value is “CNS + (CNS (+) (high BBB permeation predicted): Pe (×10^−6 cm s^−1) > 4.0)”. The IC50 at 24 h in the series “in vitro” stood at 55 ± 6.9 µM.
Consider `NS(=O)(=O)c1cc2c(cc1Cl)N=CNS2(=O)=O` [Chlorothiazide, reference compound], for which the “BBB penetration estimation CNS (+/−)” value in series [2] is given as “CNS − (CNS (−) (low BBB permeation predicted): Pe (×10^−6 cm s^−1) < 2.0)”.
As to `CCCN(CCCc1ccccc1)Cc1ccc(OCc2ccccc2)cc1` [Compound 45, {[4-(Benzyloxy)phenyl]methyl}(3-phenylpropyl)propylamine], in series [1], the IC50 is 0.29 ± 0.04 µM and the inhibition at 10 µM came to 93 ± 0.8%. Also, in series [2], the “Pe ± SEM” value was 25.0 ± 2.9 ×10^−6 cm s^−1 and the “BBB penetration estimation CNS (+/−)” value is “CNS + (CNS (+) (high BBB permeation predicted): Pe (×10^−6 cm s^−1) > 4.0)”.
In the series on HepG2 cells, `Oc1ccc(CCNCc2ccc(OCc3ccccc3)cc2)cc1` [Compound 28, 4-[2-({[4-(Benzyloxy)phenyl]methyl}amino)ethyl]phenol] yielded a Safety index of 500. Also, in series [1], the IC50 was 0.171 ± 0.063 µM and the inhibition at 10 µM came to 97 ± 0.3%. The half-maximal inhibitory concentration (IC50) at 24 h in series [3] was found to be 13 ± 1.2 µM. In addition, in series [2], the “Pe ± SEM” value is 10.0 ± 0.5 ×10^−6 cm s^−1 and the “BBB penetration estimation CNS (+/−)” value is reported as “CNS + (CNS (+) (high BBB permeation predicted): Pe (×10^−6 cm s^−1) > 4.0)”. Further, the midpoint of inhibition in the series “in vitro”, the IC50 at 24 h, lay at 85 ± 12 µM.
On to `CCN(Cc1ccccc1)Cc1cccc(OCc2ccccc2)c1` [Compound 19, Benzyl({[3-(benzyloxy)phenyl]methyl})ethylamine], for which, in series [1], the concentration for half-maximal inhibition (IC50) was found to be 0.5 ± 0.1 µM and the inhibition at 10 µM came to 88 ± 1.1%. Also, in series [2], the “Pe ± SEM” value is recorded as 36 ± 14 ×10^−6 cm s^−1 and the “BBB penetration estimation CNS (+/−)” value is on record as “CNS + (CNS (+) (high BBB permeation predicted): Pe (×10^−6 cm s^−1) > 4.0)”.
With `CCN(Cc1ccc(OCc2ccccc2)cc1)C(C)CCc1ccccc1` (stereo not shown) [Compound 46, {[4-(Benzyloxy)phenyl]methyl}(ethyl)(4-phenylbutan-2-yl)amine], in series [1], the IC50 was 0.5 ± 0.3 µM and the inhibition at 10 µM was determined as 87 ± 1.5%. For the same molecule, in series [2], the “Pe ± SEM” value was 36.0 ± 2.0 ×10^−6 cm s^−1 and the “BBB penetration estimation CNS (+/−)” value is reported as “CNS + (CNS (+) (high BBB permeation predicted): Pe (×10^−6 cm s^−1) > 4.0)”.
As to `CN(CCc1ccc(O)cc1)Cc1cc2c(cc1-c1cccc3c1N(C)CC3)OCO2` [carltonine B], the IC50 in series [4] is above 100 µM.
For the molecule `CCCN(CCCc1ccccc1)Cc1cccc(OCc2ccccc2)c1` [Compound 25, {[3-(Benzyloxy)phenyl]methyl}(3-phenylpropyl)propylamine], in series [1], the IC50 was 0.54 ± 0.03 µM and the inhibition at 10 µM worked out at 89 ± 0.8%. For the same molecule, in series [2], the “Pe ± SEM” value is on record as 33.0 ± 6.8 ×10^−6 cm s^−1 and the “BBB penetration estimation CNS (+/−)” value is “CNS + (CNS (+) (high BBB permeation predicted): Pe (×10^−6 cm s^−1) > 4.0)”.
For `COc1ccccc1CCNCc1cccc(OCc2ccccc2)c1` [Compound 5, {[3-(Benzyloxy)phenyl]methyl}[2-(2-methoxyphenyl)ethyl]amine], the Safety index in the series with HepG2 cells is 130. In addition, in series [1], the IC50 is 0.4 ± 0.1 µM and the inhibition at 10 µM was 94 ± 0.4%. Moreover, half-maximal inhibition in series [3] (IC50 at 24 h) was put at 16 ± 2.8 µM. Also, in series [2], the “Pe ± SEM” value is recorded as 6.2 ± 0.7 ×10^−6 cm s^−1 and the “BBB penetration estimation CNS (+/−)” value is “CNS + (CNS (+) (high BBB permeation predicted): Pe (×10^−6 cm s^−1) > 4.0)”. Also, the IC50 at 24 h in “in vitro” worked out at 52 ± 10 µM.
Consider `Oc1ccc(CCNCc2cccc(OCc3ccccc3)c2)cc1` [Compound 4, 4-[2-({[3-(Benzyloxy)phenyl]methyl}amino)ethyl]phenol], for which the Safety index with HepG2 cells was found to be 310. In addition, in series [1], the IC50 stood at 0.193 ± 0.055 µM and the inhibition at 10 µM came out at 96 ± 0.8%. Further, the IC50 at 24 h in series [3] is 21 ± 2.4 µM. For the same molecule, in series [2], the “Pe ± SEM” value is reported as 14.0 ± 0.4 ×10^−6 cm s^−1 and the “BBB penetration estimation CNS (+/−)” value was “CNS + (CNS (+) (high BBB permeation predicted): Pe (×10^−6 cm s^−1) > 4.0)”. In the series “in vitro”, this molecule registered an IC50 at 24 h of 60 ± 4 µM.
In the case of `CCN(CCc1ccccc1)Cc1cccc(OCc2ccccc2)c1` [Compound 21, {[3-(Benzyloxy)phenyl]methyl}(ethyl)(2-phenylethyl)amine], in series [1], the IC50 was 0.4 ± 0.1 µM and the inhibition at 10 µM was 91 ± 0.4%. In series [2], the “Pe ± SEM” value was 21.0 ± 0.6 ×10^−6 cm s^−1 and the “BBB penetration estimation CNS (+/−)” value is “CNS + (CNS (+) (high BBB permeation predicted): Pe (×10^−6 cm s^−1) > 4.0)”.
On to `Nc1c2c(nc3ccccc13)CCCC2` [Tacrine, reference compound], for which, in series [2], the “BBB penetration estimation CNS (+/−)” value is “CNS + (CNS (+) (high BBB permeation predicted): Pe (×10^−6 cm s^−1) > 4.0)”.
As to `c1ccc(CNCc2cccc(OCc3ccccc3)c2)cc1` [Compound 14, Benzyl({[3-(benzyloxy)phenyl]methyl})amine], in series [1], the IC50 turned out to be 0.5 ± 0.1 µM and the inhibition at 10 µM amounted to 92 ± 0.3%. Besides, in series [2], the “Pe ± SEM” value was 9.8 ± 2.9 ×10^−6 cm s^−1 and the “BBB penetration estimation CNS (+/−)” value is recorded as “CNS + (CNS (+) (high BBB permeation predicted): Pe (×10^−6 cm s^−1) > 4.0)”.
`CCCN(Cc1ccccc1)Cc1ccc(OCc2ccccc2)cc1` [Compound 44, Benzyl({[4-(benzyloxy)phenyl]methyl})propylamine]: in series [1], the IC50 is above 10 µM and the inhibition at 10 µM worked out at 18 ± 0.3%.
`c1ccc(COc2ccc(CNCCc3ccccn3)cc2)cc1` [Compound 38, {[4-(Benzyloxy)phenyl]methyl}[2-(pyridin-2-yl)ethyl]amine]: in series [1], the IC50 was above 10 µM and the inhibition at 10 µM was found to be 23 ± 1%.
